Measurements from patent US10065990B2, “Cyclic peptide compound, and preparation method, pharmaceutical composition and use thereof” (HANGZHOU GUANYU BIO-MEDICAL CO., LTD, priority 2013, dated 2018).
Read-outs that look alike come from different tables or passages of the source.

Legend:
[1] = molecular target: T1, HDAC7 (Homo sapiens, UniProt Q8WUI4); test: HDAC biochemical activity measurement (fluorescent substrate deacetylation);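 further: fluorogenic deacetylation assay using acetyl-lysine substrate at 20 µM, enzyme and compound incubated 30 min at 37 °C, then developer added, fluorescence read at 360/460 nm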; conditions: HDAC7; 37° C. 30 minutes
T1 sequence (Q8WUI4 1-952): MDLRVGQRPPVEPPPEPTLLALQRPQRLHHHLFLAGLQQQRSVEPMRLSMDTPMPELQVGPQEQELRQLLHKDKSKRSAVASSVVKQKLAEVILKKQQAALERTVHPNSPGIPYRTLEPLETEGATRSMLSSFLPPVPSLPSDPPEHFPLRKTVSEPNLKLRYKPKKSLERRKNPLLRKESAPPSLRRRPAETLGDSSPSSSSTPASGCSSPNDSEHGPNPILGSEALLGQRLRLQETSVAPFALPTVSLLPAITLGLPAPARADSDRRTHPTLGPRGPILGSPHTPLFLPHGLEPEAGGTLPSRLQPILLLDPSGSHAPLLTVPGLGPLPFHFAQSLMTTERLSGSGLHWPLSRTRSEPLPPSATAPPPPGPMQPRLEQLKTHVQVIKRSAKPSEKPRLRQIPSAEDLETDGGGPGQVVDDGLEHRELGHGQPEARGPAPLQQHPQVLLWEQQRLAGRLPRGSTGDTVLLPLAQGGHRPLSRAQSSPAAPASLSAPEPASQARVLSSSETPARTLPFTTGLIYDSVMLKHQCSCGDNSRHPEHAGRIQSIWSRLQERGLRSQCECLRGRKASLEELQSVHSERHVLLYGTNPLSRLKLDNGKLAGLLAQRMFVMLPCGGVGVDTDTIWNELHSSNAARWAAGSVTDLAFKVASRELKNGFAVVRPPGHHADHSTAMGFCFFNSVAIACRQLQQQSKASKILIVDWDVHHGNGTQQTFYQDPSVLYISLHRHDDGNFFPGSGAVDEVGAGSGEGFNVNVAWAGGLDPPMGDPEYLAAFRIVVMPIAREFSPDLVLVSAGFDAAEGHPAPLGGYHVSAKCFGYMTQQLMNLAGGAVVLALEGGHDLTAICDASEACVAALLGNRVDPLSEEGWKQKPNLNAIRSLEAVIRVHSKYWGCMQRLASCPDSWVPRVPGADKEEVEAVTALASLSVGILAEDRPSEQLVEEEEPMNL

[2] = tested on: A549 (human lung cancer cells); test: MTT cancer cell growth inhibition; format: cell-based; conditions: MTT, 72 hours incubation, read-out: GI50 A54
Method in brief: (§1)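 Cells grown in DMEM or RPMI 1640 with 10% FBS were seeded at 1500/well and left overnight at 37° C., 5% CO2. Compounds at final 10^−5 to 10^−10 M were added in triplicate for 72 h. MTT was then added for 4 h, formazan dissolved in DMSO, and absorbance read at 570 nm to derive GI50.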

[3] = tested on: BGC-823 (human gastric cancer cells); test: MTT cancer cell growth inhibition; format: cell-based; conditions: Homo sapiens, BGC-823, 72 h, MTT, 72 hours incubation, read-out: GI50 BG
Method in brief: as §1

[4] = tested on: Bel-7402 (human hepatoma cells); test: MTT cancer cell growth inhibition; format: cell-based; conditions: MTT, 72 hours incubation, Bel-7402 cells, read-out: GI50 Bel-7402
Method in brief: as §1

[5] = tested on: DU145 (human prostate cancer cells); test: MTT cancer cell growth inhibition; format: cell-based; conditions: MTT, 72 hours incubation, read-out: GI50 Du1
Method in brief: as §1

[6] = tested on: H1975 (non-small cell lung adenocarcinoma); test: MTT cancer cell growth inhibition; format: cell-based; conditions: Homo sapiens, NCI-H1975, 72 h, MTT, 72 hours incubation, H1975 cells; read-out: GI50 H1975
Method in brief: as §1

[7] = tested on: HCC827 (human non-small cell lung cancer cells); test: MTT cancer cell growth inhibition; format: cell-based; conditions: Homo sapiens, HCC827, 72 h, MTT, 72 hours incubation, HCC827 cells; read-out: GI50 HCC827
Method in brief: as §1

[8] = tested on: HT1080 (human fibrosarcoma cells); test: MTT cancer cell growth inhibition; format: cell-based; conditions: MTT, 72 hours incubation, read-out: GI50 HT1
Method in brief: as §1

[9] = tested on: Hela (human cervical cancer cells); test: MTT cancer cell growth inhibition; format: cell-based; conditions: Homo sapiens, HeLa, 72 h, MTT, 72 hours incubation, read-out: GI50 Hela
Method in brief: as §1

[10] = tested on: Huh-7 (human hepatoma cells); test: MTT cancer cell growth inhibition; format: cell-based; conditions: Homo sapiens, Huh-7, 72 h, MTT, 72 hours incubation, Huh-7 cells; read-out: GI50 Huh-7
Method in brief: as §1

[11] = tested on: K562 (human leukemia cells); test: MTT cancer cell growth inhibition; format: cell-based; conditions: MTT, 72 hours incubation, K562 cells, read-out: GI50 K562
Method in brief: as §1

[12] = tested on: KBM-5 (human chronic myelogenous leukemia); test: MTT cancer cell growth inhibition; format: cell-based; conditions: Homo sapiens, KBM5, 72 h, MTT, 72 hours incubation, KBM-5 cells; read-out: GI50 KBM-5
Method in brief: as §1

[13] = tested on: KBM5-T315I (human chronic myelogenous leukemia); test: MTT cancer cell growth inhibition; format: cell-based; conditions: MTT, 72 hours incubation, KBM5-T315I cells, read-out: GI50 KBM5-T315I
Method in brief: as §1

[14] = tested on: MCF-7 (human breast cancer cells); test: MTT cancer cell growth inhibition; format: cell-based; conditions: Homo sapiens, MCF7, 72 h, 72 hours incubation, read-out: GI50 MCF
Method in brief: as §1

[15] = tested on: MDA-MB-231 (breast cancer cells); test: MTT cancer cell growth inhibition; format: cell-based
Method in brief: as §1

[16] = tested on: MOLT-4 (human acute lymphoblastic leukemia cells); test: MTT cancer cell growth inhibition; format: cell-based; conditions: MTT, 72 hours incubation, read-out: GI50 Mol
Method in brief: as §1

[17] = tested on: N-87 (human gastric cancer cells); test: MTT cancer cell growth inhibition; format: cell-based; conditions: Homo sapiens, 72 h, MTT, 72 hours incubation, N-87 cells; read-out: GI50 N-87
Method in brief: as §1

[18] = tested on: PANC-1 (Pac-1, human pancreatic cancer cells); test: MTT cancer cell growth inhibition; format: cell-based; conditions: Homo sapiens, PANC-1, 72 h, MTT, 72 hours incubation, read-out: GI50 PAN
Method in brief: as §1

[19] = tested on: SGC-7901 (human gastric cancer cells); test: MTT cancer cell growth inhibition; format: cell-based; conditions: Homo sapiens, SGC-7901, 72 h, MTT, 72 hours incubation, SGC-7901 cells; read-out: GI50 SGC-7901
Method in brief: as §1

[20] = tested on: U937 (human leukemia cells); test: MTT cancer cell growth inhibition; format: cell-based; conditions: Homo sapiens, U-937, 72 h, MTT, 72 hours incubation, read-out: GI50 U93
Method in brief: as §1

[21] = tested on: lncap (prostate cancer cells); test: MTT cancer cell growth inhibition; format: cell-based; conditions: MTT, 72 hours incubation, read-out: GI50 lnca
Method in brief: as §1

[22] = Homo sapiens, A549, 72 h, A549 cells
[23] = Homo sapiens, DU-145, 72 h, DU145 cells
[24] = Homo sapiens, HT-1080, 72 h, HT1080 cells
[25] = Homo sapiens, MDA-MB-231, 72 h, read-out: GI50 MDA-MB-231, MTT, 72 hours incubation, MDA-MB-231 cells
[26] = Homo sapiens, MOLT-4, 72 h, MOLT-4 cells
[27] = Homo sapiens, LNCaP, 72 h, lncap cells

Row | IC50 HDAC7 [1] | GI50 [2, 22] [nM] | GI50 ([3]; BGC-823 cells) [nM] | GI50 ([4]; Homo sapiens, Bel-7402, 72 h) [nM] | GI50 [5, 23] [nM] | GI50 [6] [nM] | GI50 [7] [nM] | GI50 [8, 24] [nM] | GI50 ([9]; Hela cells) [nM] | GI50 [10] [nM] | GI50 ([11]; Homo sapiens, K562, 72 h) [nM] | GI50 [12] [nM] | GI50 ([13]; Homo sapiens, 72 h) [nM] | GI50 ([14]; MCF-7 cells) [nM] | GI50 [15, 25] [nM] | GI50 [16, 26] [nM] | GI50 [17] [nM] | GI50 ([18]; PANC-1 cells) [nM] | GI50 [19] [nM] | GI50 ([20]; U937 cells) [nM] | also measured | Compound
1 | no activity | 30 | 20 | 30 | 60 | 12 | 43 | 60 | 60 | 28 | 57 | 41 | 34 | 30 | 53 | 40 | 32 | 70 | 76 | 50 | GI50 [21, 27]: 20 nM | C/C=C1\NC(=O)c2nc(ccc2SC)CNC(=O)C[C@@H](/C=C/CCSC(C)=O)OC(=O)[C@H](C(C)C)NC1=O [Compound 165]
2 | no activity | 20 | 80 | 26 | 60 | 59 | 45 | 40 | 30 | 26 | 107 | 28 | 34 | 30 | 46 | 40 | 39 | 70 | 58 | 50 | GI50 [21, 27]: 80 nM | C/C=C1\NC(=O)c2ccc(SC)c(n2)CNC(=O)C[C@@H](/C=C/CCSC(C)=O)OC(=O)[C@H](Cc2cccc3ccccc23)NC1=O [Compound 200]
3 | no activity |  |  |  |  | 28 | 52 |  |  | 26 |  | 24 |  |  |  |  | 57 |  | 28 |  | GI50 [2]: 20 nM; GI50 [3]: 40 nM; GI50 [4]: 77 nM; GI50 [5]: 150 nM; GI50 [8]: 30 nM; GI50 [9]: 20 nM; GI50 [11]: 48 nM; GI50 [13]: 43 nM; GI50 [14]: 100 nM; GI50 ([15]; read-out: GI50 MDA-MB-231, MTT, 72 hours incubation, MDA-MB-231 cells): 16 nM; GI50 [16]: 30 nM; GI50 [18]: 70 nM; GI50 [20]: 40 nM; GI50 [21]: 30 nM | C=C1NC(=O)c2cc(F)cc(n2)CNC(=O)C[C@@H](/C=C/CCS)OC(=O)[C@H](C(C)C)NC1=O [Compound 132]
4 | no activity | 30 | 60 | 73 | 40 | 45 | 32 | 60 | 50 | 23 | 26 | 35 | 41 | 60 | 78 | 20 | 84 | 80 | 31 | 40 | GI50 [21, 27]: 20 nM | C/C=C1\NC(=O)c2cc(SC)cc(n2)CNC(=O)C[C@@H](/C=C/CCSC(=O)CCCCCCC)OC(=O)[C@H](CC)NC1=O [Compound 172]
5 | no activity |  |  | 94 |  | 34 | 94 |  |  | 49 | 53 | 83 | 24 |  | 49 |  | 34 |  | 36 |  | GI50 ([2]; Homo sapiens, A549, 72 h): 30 nM; GI50 [3]: 30 nM; GI50 ([5]; Homo sapiens, DU-145, 72 h): 50 nM; GI50 ([8]; Homo sapiens, HT-1080, 72 h): 90 nM; GI50 [9]: 80 nM; GI50 [14]: 20 nM; GI50 ([16]; Homo sapiens, MOLT-4, 72 h): 40 nM; GI50 [18]: 90 nM; GI50 [20]: 30 nM; GI50 ([21]; Homo sapiens, LNCaP, 72 h): 40 nM | C=C1NC(=O)c2nc(ccc2F)CNC(=O)C[C@@H](/C=C/CCSC(C)=O)OC(=O)[C@H](C)NC1=O [Compound 90]
6 | no activity | 60 | 20 | 43 | 20 | 26 | 96 | 50 | 30 | 88 | 37 | 49 | 57 | 60 | 38 | 30 | 62 | 50 | 37 | 90 | GI50 [21, 27]: 70 nM | C/C=C1\NC(=O)c2ccc(SC)c(n2)CNC(=O)C[C@@H](/C=C/CCSC=O)OC(=O)[C@H](C(C)C)NC1=O [Compound 170]
